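These data come from cells grown in 96-well plates and exposed to compound for 48 hours at five concentrations. TGI marks complete inhibition of growth.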
Columns and labels:
Assay in all cases: NCI anticancer screen, dose series, 48 h
A549 NSCLC = test system: A549 NSCLC
HCT-15 colon = test system: HCT-15 colon
HL-60(TB) leukemia = test system: HL-60(TB) leukemia
HOP-92 NSCLC = test system: HOP-92 NSCLC
K-562 leukemia = test system: K-562 leukemia
LOX IMVI melanoma = test system: LOX IMVI melanoma
MOLT-4 leukemia = test system: MOLT-4 leukemia
NCI-H23 lung = test system: NCI-H23 lung
OVCAR-5 ovarian = test system: OVCAR-5 ovarian
RPMI-8226 leukemia = test system: RPMI-8226 leukemia
SK-MEL-28 melanoma = test system: SK-MEL-28 melanoma
SK-MEL-5 melanoma = test system: SK-MEL-5 melanoma
SK-OV-3 ovarian = test system: SK-OV-3 ovarian
SN12C renal = test system: SN12C renal
SNB-19 CNS = test system: SNB-19 CNS
SNB-75 CNS = test system: SNB-75 CNS
SW-620 colon = test system: SW-620 colon
UACC-257 melanoma = test system: UACC-257 melanoma
UACC-62 melanoma = test system: UACC-62 melanoma
M14 melanoma = test system: M14 melanoma

Compound	TGI (A549 NSCLC)	TGI (HCT-15 colon)	TGI (HL-60(TB) leukemia)	TGI (HOP-92 NSCLC)	TGI (K-562 leukemia)	TGI (LOX IMVI melanoma)	TGI (MOLT-4 leukemia)	TGI (NCI-H23 lung)	TGI (OVCAR-5 ovarian)	TGI (RPMI-8226 leukemia)	TGI (SK-MEL-28 melanoma)	TGI (SK-MEL-5 melanoma)	TGI (SK-OV-3 ovarian)	TGI (SN12C renal)	TGI (SNB-19 CNS)	TGI (SNB-75 CNS)	TGI (SW-620 colon)	TGI (UACC-257 melanoma)	TGI (UACC-62 melanoma)	TGI (M14 melanoma)
Nc1c(C(=O)Nc2ccc(C3=NCCN3)cc2)cccc1C(=O)Nc1ccc(C2=NCCN2)cc1	> 100 µM	> 100 µM	> 100 µM	> 100 µM	> 100 µM	> 100 µM	> 100 µM	> 100 µM	> 100 µM	> 100 µM	> 100 µM	> 100 µM	> 100 µM	> 100 µM	> 100 µM	> 100 µM	> 100 µM	> 100 µM	> 100 µM	–
N=[N+]=CC(=O)CCC(NC(=O)C(CCC(=O)C=[N+]=N)NC(=O)CCC(N)C(=O)O)C(=O)O (stereo not given)	> 100 µM	> 100 µM	> 100 µM	> 100 µM	> 100 µM	> 100 µM	> 100 µM	> 100 µM	> 100 µM	> 100 µM	> 100 µM	> 100 µM	> 100 µM	> 100 µM	> 100 µM	> 100 µM	> 100 µM	> 100 µM	> 100 µM	–
COC(=O)c1cc2cc3c(c(O)c2c(=O)o1)O[C@@]1(Oc2c(O)c4c(c(O)c2[C@H]1OC1CC(OC)C(O)C(C)O1)C(=O)C=C(OC)C4=O)[C@H](O)C3 (stereo not given in full)	–	> 19.7 µM	3.39 µM	> 23.6 µM	8.82 µM	–	6.22 µM	3.85 µM	> 24.3 µM	4.44 µM	1.91 µM	–	17 µM	12.1 µM	12.6 µM	–	> 39.8 µM	14.1 µM	1.78 µM	> 100 µM
CN(Cc1cccc2ccccc12)Cc1cccc2ccccc12	> 100 µM	> 100 µM	33.4 µM	–	> 100 µM	> 100 µM	35 µM	> 100 µM	> 100 µM	50.1 µM	> 100 µM	33.6 µM	> 100 µM	> 100 µM	> 100 µM	> 100 µM	57.9 µM	> 100 µM	> 100 µM	74.3 µM
C1CSC(=[N+]2CC[N+](=C3SCCS3)CC2)S1	> 100 µM	> 100 µM	> 100 µM	> 100 µM	> 100 µM	> 100 µM	> 100 µM	> 100 µM	> 100 µM	> 100 µM	> 100 µM	> 100 µM	> 100 µM	> 100 µM	> 100 µM	> 100 µM	> 100 µM	> 100 µM	> 100 µM	> 100 µM
C/C(=N\NC(=S)N1CCN(C)CC1)c1nc2ncccc2[nH]1	> 100 µM	> 100 µM	> 100 µM	> 100 µM	> 100 µM	> 100 µM	> 100 µM	> 100 µM	> 100 µM	> 100 µM	> 100 µM	> 100 µM	> 100 µM	> 100 µM	> 100 µM	> 100 µM	> 100 µM	> 100 µM	> 100 µM	> 100 µM
CC(C)(C)NCC(O)c1ccc(O)c(CO)n1 (stereo not given)	> 100 µM	> 100 µM	> 100 µM	> 100 µM	–	> 100 µM	> 100 µM	> 100 µM	> 100 µM	> 100 µM	> 100 µM	> 100 µM	> 100 µM	> 100 µM	> 100 µM	> 100 µM	> 100 µM	> 100 µM	> 100 µM	> 100 µM
CC(C)(C)C(=O)CP(=O)(O)O	> 100 µM	> 100 µM	> 100 µM	> 100 µM	> 100 µM	> 100 µM	> 100 µM	> 100 µM	> 100 µM	> 100 µM	> 100 µM	> 100 µM	> 100 µM	> 100 µM	> 100 µM	> 100 µM	> 100 µM	> 100 µM	> 100 µM	> 100 µM
OC(c1cc(-c2ccc(Cl)cc2)nc2ccccc12)C1CCCCN1 (stereo not given)	3.53 µM	6.11 µM	4.61 µM	12.2 µM	3.13 µM	2.09 µM	4.52 µM	4.58 µM	4.94 µM	3.12 µM	3.53 µM	5.9 µM	5.5 µM	3.54 µM	37.6 µM	–	3.69 µM	9.71 µM	3.43 µM	3.37 µM
C/C=C(\C)C(=O)OC1C(C)=C2C(C1OC(=O)CCCC)C(C)(OC(C)=O)CC(OC(=O)CCCC)C1(O)C2OC(=O)C1(C)O (stereo not given)	> 100 µM	> 100 µM	> 100 µM	> 100 µM	> 100 µM	2.08 µM	> 100 µM	> 47.4 µM	> 93.3 µM	> 21.1 µM	> 100 µM	–	> 100 µM	> 100 µM	> 100 µM	48.6 µM	–	> 100 µM	13.2 µM	4.53 µM
C[n+]1c2ccccc2c(NC(CS)C(=O)O)c2ccccc21 (stereo not given)	70.1 µM	> 100 µM	44.8 µM	60.2 µM	> 100 µM	–	38.6 µM	> 100 µM	> 100 µM	53.9 µM	–	44.6 µM	61 µM	> 100 µM	> 100 µM	73.5 µM	> 100 µM	92.9 µM	34.2 µM	> 100 µM
Nc1ccc(S(=O)(=O)Nc2ccc(Nc3c4ccccc4nc4ccccc34)cc2)cc1	0.919 µM	17.7 µM	0.183 µM	4.84 µM	17 µM	1.51 µM	–	0.732 µM	12.9 µM	4.06 µM	20.8 µM	2 µM	0.501 µM	0.628 µM	9.54 µM	0.963 µM	14.3 µM	20.2 µM	3.66 µM	17.5 µM
O=C(O)NCC1CCCCC1 (tested in a mixture with another compound)	> 100 µM	63.6 µM	38.5 µM	24.4 µM	35.9 µM	28.6 µM	> 100 µM	81.2 µM	> 100 µM	9.73 µM	> 100 µM	28.7 µM	–	28.1 µM	> 100 µM	36.6 µM	52.4 µM	63.2 µM	34.2 µM	> 100 µM
O=C(NC1C=Nc2ccc([N+](=O)[O-])cc2NC1=O)c1cc(Cl)cc([N+](=O)[O-])c1 (stereo not given)	> 100 µM	> 100 µM	> 100 µM	> 100 µM	> 100 µM	> 100 µM	> 100 µM	> 100 µM	> 100 µM	> 100 µM	> 100 µM	> 100 µM	> 100 µM	> 100 µM	> 100 µM	> 100 µM	> 100 µM	> 100 µM	> 100 µM	> 100 µM

Reference: PubChem BioAssay (NCI)
